According to article PMC9762789, “Chromone-based monoamine oxidase B inhibitor with potential iron-chelating activity for the treatment of Alzheimer’s disease” (Journal of Enzyme Inhibition and Medicinal Chemistry, 2022):
Where two headings read alike, the source gives them in different places.

Tests used:
[1] = tested on: scopolamine-induced cognitive impairment mice model; assay: Morris water maze test, scopolamine-induced memory impairment; format: in vivo, ICR mice
From the text: To further explore the in vivo anti-AD effect of compound 17d on the scopolamine-induced cognitive impairment mice model, the Morris Water Maze experiment was selected; data are shown in Figure 7 and Table 5.
Figure 7.
Adult female ICR mice (weight 20–25 g) were obtained from the Zhejiang Academy of Medical Sciences (Hangzhou, China). Scopolamine hydrobromide and Pargyline were purchased from Aladdin Reagents. Memantine was purchased from Energy Chemical. All experiments were approved by the Laboratory Animals Ethical Committee of the Zhejiang University of Technology (No. 20211210103). In this test, mice were prepared as clarified and clear injections, consisting of 20% (2-Hydroxypropyl)-β-cyclodextrin, 10% DMSO, and PBS. […] Mice were administered at a frequency of once a day over 15 d with a fixed dosing schedule. The body weight of mice was measured during the experiment.
After eliminating environmental stress, the behavioural test was performed over the next five days. The mice were trained to find the platform (10 cm diameter) in the circular light-avoidance pool (120 cm diameter and 60 cm height) filled with water (40 cm, depth), which was described in detail in our previous study. All mice received at least one training session daily in four quadrants for four consecutive days before the probe trial of finding the platform within 120 s. Recordings were made with SMART version 3.0 (Panlab, Spain) and processed by Graphpad Prism version 6 software (Graphpad Software Inc., La Jolla, CA, USA).

[2] = target: T1, Human MAO-A (Homo sapiens, UniProt P21397); assay: hMAO-A inhibition assay; format: biochemical
T1 construct: purchased Sigma-Aldrich
T1 sequence (P21397 1-527): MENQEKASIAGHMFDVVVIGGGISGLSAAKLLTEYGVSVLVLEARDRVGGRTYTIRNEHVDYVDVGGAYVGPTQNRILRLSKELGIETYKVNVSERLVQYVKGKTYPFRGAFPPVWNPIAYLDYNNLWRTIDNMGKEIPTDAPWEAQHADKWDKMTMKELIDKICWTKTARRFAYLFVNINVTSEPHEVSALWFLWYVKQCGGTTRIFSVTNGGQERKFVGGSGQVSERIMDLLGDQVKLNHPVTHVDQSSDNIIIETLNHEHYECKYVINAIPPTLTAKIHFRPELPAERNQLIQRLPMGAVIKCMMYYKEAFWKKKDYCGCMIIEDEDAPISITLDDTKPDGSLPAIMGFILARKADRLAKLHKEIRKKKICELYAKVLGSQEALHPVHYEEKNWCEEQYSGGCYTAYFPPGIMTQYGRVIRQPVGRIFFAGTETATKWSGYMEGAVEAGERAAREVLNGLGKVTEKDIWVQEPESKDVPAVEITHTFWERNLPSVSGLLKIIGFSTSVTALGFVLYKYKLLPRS
Procedure: Further, the inhibitory activity of compounds against hMAO-A isoform was tested and calculated as a selectivity index [Selectivity index (SI): IC50 (hMAO-A)/IC50 (hMAO-B)].
The reagents and enzymes (Human MAO-B and Human MAO-A) applied in this experiment were purchased from Sigma-Aldrich. According to the manuals, all components (substrate solution and enzyme solution) are diluted and placed aside for use. The detailed process has been mentioned in our early work[34].

[3] = Pharmacokinetic study and brain distribution (UHPLC-MS/MS); format: in vivo; details: rats; for AUC(0-t): read-out: AUC0–24; for MRT inf: read-out: MRT0–∞
Procedure: UHPLC-MS/MS method was adopted to investigate the pharmacokinetic profiles of its metabolites after intravenous (i.v.) administration (2.34 mg/kg) and intragastric (i.g.) administration (15 mg/kg) of 17d in the tail vein of rats.
Rats were purchased from the Zhejiang Academy of Medical Sciences (Hangzhou, China). All rats were kept strictly following the requirements of experimental animal operation instructions, kept at a temperature (22 ± 2 °C), day/night cycle every 12 h in a constant environment. 12 h before the experiment, the rats were fasted but free to drink. For each rat, retro-orbital blood samples (0.2 ml) were obtained into EDTA soaked polythene tubes before drug administration and at time points of 0.083, 0.25, 0.50, 0.75, 1.0, 2.0, 4.0, 6.0, 8.0, 10, 12, and 24 h post-dosing. The collected blood samples were immediately centrifuged at 3500 rpm for 10 min at room temperature to separate plasma, and stored in a −80 °C refrigerator before use. […] The tissue was weighed and homogenised under ice bath conditions and was collected for further processing.
Biological samples were performed with ACQUITY UPLC® H Class system, which was coupled to an Xevo TQ-S micro triple quadrupole mass spectrometer (Waters, Milford, MA, USA) with an ESI source and MassLynx^TM Workstation software version 4.2 (Waters, Milford, MA, USA). We used a BEH Shield RP C18 column (100 × 2.1 mm, 1.7 µm, Waters, Milford, MA, USA) for chromatographic separation, and the column temperature is kept at 30 °C. The mobile phase was composed of 30%, 0.2% formic acid aqueous solution (A) and 70%, 0.3% formic acid methanol solution (B) and is delivered at a flow rate of 0.2 ml/min. The temperature of the autosampler is set to 30 °C. The sample injection volume is 5 µl. Pharmacokinetic parameters of the analytes were calculated using the pharmacokinetic software DAS version 2.0 (Bontz Inc., Beijing, China). All data were expressed as mean ± SD.

[4] = rat, plasma, iv, i.v. 2.34 mg/kg, mean ± SD, n = 3
[5] = rat, plasma, po, i.g. 15 mg/kg, mean ± SD, n = 3

COc1ccc2c(=O)c(CNCCn3ccc(=O)c(O)c3C)coc2c1 [Compound 17d, 3-Hydroxy-1–(2-(((7-methoxy-4-oxo-4H-chromen-3-yl)methyl)amino)ethyl)-2-methylpyridin-4(1H)-one]
body weight of mice ([1]; 15 mg/kg once a day, after ten days): increased after ten days
scopolamine-induced cognitive impairment ([1]; 15 mg/kg, mice, Morris water maze): significantly ameliorated
Entries to target ([1]; 15 mg/kg, scopolamine 15 mg/kg, ICR mice, mean ± SEM, n = 15): 3.3 ± 0.3
melting point: 252 to 254 °C
IC50 [2]: 0.739 ± 0.0219 µM
AUC(0-inf) [3, 4]: 749 ± 87.1 ng·h/mL
Cmax [3, 4]: 2150 ± 637 ng/mL
Tmax [3, 4]: 4.98 min
clearance [3, 4]: 52.5 mL/min/kg
half-life [3, 4]: 19.2 min
AUC(0-t) [3, 4]: 745 ± 88.4 ng·h/mL
MRT inf [3, 4]: 15 ± 4.8 min
bioavailability ([3]; rat, plasma, oral, i.g. 15 mg/kg vs i.v. 2.34 mg/kg, read-out: F (bioavailability)): 9.25%
AUC(0-inf) [3, 5]: 444 ± 65.3 ng·h/mL
Cmax [3, 5]: 390 ± 50.1 ng/mL
Tmax [3, 5]: 15 min
half-life [3, 5]: 30.6 ± 10.8 min
AUC(0-t) [3, 5]: 439 ± 59.6 ng·h/mL
MRT inf [3, 5]: 48.6 ± 5.4 min
Brain 17d content ([3]; i.g. 15 mg/kg, collected at Cmax time point): 6.02 ± 0.08 ng/g
V ([3]; i.v. 2.34 mg/kg, mean ± SD, n = 3): 1.46 ± 0.19 L/kg
